Data taken from patent US7166299B2, “Preparation of aqueous clear solution dosage forms with bile acids” (priority 1998, dated 2007).
Several values for one entry are separate records, joined by “and”; a condition that tells them apart may be missing. Identical values can stand only once. Like-named read-outs stand apart in the source and are kept apart here.

Experiments:
[1] = Hematic levels of UDCA and glyco UDCA after oral administration of 200 mg UDCA aqueous solution to three healthy men (Example VI); format: in vivo, human
Description: The aqueous solution dosage forms, according to this invention, containing 200 mg of ursodeoxycholic acid (UDCA), were prepared according to the method described in the above-described Example III and were administered to three healthy men having normal body weight after fasting. The hematic levels of UDCA and glyco UDCA were evaluated by means of well known chemical methods. After applying buffered serum to sep-pak column, methanol eluate was derivatized with phenacyl bromide at 80° C. for 45 minutes. These phenacyl bromide derivatives were dissolved in acetonitrile in preparation for HPLC. The experimental results of the absorption measured at certain times after dosage administration include the total absorption expressed as the area under the serum concentration-time curve (AUC: μg/mL×hours), the maximum hematic concentration (Cmax; μg/mL) that has been obtained, and the time (Tmax; hour) in which said maximum concentration has been obtained.
The experimental pharmacokinetic tests of the aqueous solution dosage forms according to this invention carried out on men show substantial improvement in AUC, Cmax and Tmax in comparison with the best results from any dosage forms known presently.
Table 4A and Table 4B show plasma concentration of UDCA and GUDCA measured in 3 men over time following on oral administration of the UDCA and GUDCA containing formulations according to Example VI and comparison of results against results of others employing different pharmaceutical formulations of UDCA.

[2] = UDCA levels in human after oral administration of liquid solution or syrup containing 600 mg UDCA per day (five subjects); format: in vivo; design: unit not given here
Text: FIG. 3: Diagram of the mean(n=5) for group I for pharmacokinetic parameters of UDCA in human after an oral administration of liquid formulation of UDCA prepared according to Example IX without bismuth. FIG. 4: Diagram of the mean(n=5) for group II for pharmacokinetic parameters of UDCA in human after an oral administration of liquid formulation of UDCA prepared according to Example IX. […] Cmax is shown. Five human subjects were provided with dosage forms prepared according to this Example. The results are shown in Tables 5A and 5B and rendered graphically in FIGS. 3 and 4.

[3] = human, oral, Nagamatsu et al. (1997), cited from earlier work
[4] = cited from earlier work
[5] = oral, 200 mg UDCA solution of this invention

What does the source list for `C[C@H](CCC(=O)O)[C@H]1CC[C@H]2[C@@H]3[C@@H](O)C[C@@H]4C[C@H](O)CC[C@]4(C)[C@H]3CC[C@]12C` [UDCA, ursodeoxycholic acid (3α-7β-dihydroxy-5β-cholanic acid)]?
concentration at 0.25 h ([1]; male, human, plasma, po, 200 mg, 200 mg UDCA solution of this invention, 0.25 h, three men): 8430 ± 1690 ng/mL; concentration at 1 h ([1]; male, human, plasma, po, 200 mg, 200 mg UDCA solution of this invention, 1 h, three men): 1150 ± 470 ng/mL; concentration at 1.5 h ([1]; male, human, plasma, po, 200 mg, 200 mg UDCA solution of this invention, 1.5 h, three men): 320 ± 110 ng/mL; concentration at 0.5 h ([1]; male, human, plasma, po, 200 mg, oral, 200 mg UDCA solution of this invention, 0.5 h, three men, read-out: Plasma concentration, mean): 6550 ± 1050 ng/mL; concentration at 0.5 h ([1]; male, human, plasma, po, 200 mg, oral, 200 mg UDCA solution of this invention, 0.5 h, read-out: Plasma concentration, individual men #1-#3): 4450 ng/mL; concentration at 2 h ([1]; male, human, plasma, po, 200 mg, oral, 200 mg UDCA solution of this invention, 2 h, three men, read-out: Plasma concentration, mean): 190 ± 30 ng/mL; concentration at 2 h ([1]; male, human, plasma, po, 200 mg, oral, 200 mg UDCA solution of this invention, 2 h, read-out: Plasma concentration, individual men #1-#3): 235 ng/mL; concentration at 3 h ([1]; male, human, plasma, po, 200 mg, oral, 200 mg UDCA solution of this invention, 3 h, three men, read-out: Plasma concentration, mean): 170 ± 40 ng/mL; concentration at 3 h ([1]; male, human, plasma, po, 200 mg, oral, 200 mg UDCA solution of this invention, 3 h, read-out: Plasma concentration, individual men #1-#3): 124 ng/mL; AUC ([1]; male, human, plasma, po, 200 mg, oral, 200 mg UDCA solution of this invention, three men, read-out: AUC, mean): 5460 ± 660 ng·h/mL; AUC ([1]; male, human, plasma, po, 200 mg, oral, 200 mg UDCA solution of this invention, read-out: AUC, individual men #1-#3): 4320 ng·h/mL; Tmax ([1]; male, human, plasma, po, 200 mg, oral, 200 mg UDCA solution of this invention, read-out: Tmax, individual men #1-#3): 15 min; Cmax ([1]; male, human, serum, po, 200 mg, oral, 200 mg UDCA solution of this invention, three men, read-out: Cmax, mean): 8430 ± 1690 ng/mL; Tmax ([1]; male, human, serum, po, 200 mg, oral, 200 mg UDCA solution of this invention, three men, read-out: Tmax, mean): 15 min; AUC, individual men #1-#3 [1, 5]: 6600 ng·h/mL and 5470 ng·h/mL; Cmax, individual men #1-#3 [1, 5]: 5210 ng/mL and 10920 ng/mL and 9160 ng/mL; Plasma concentration, individual men #1-#3 ([1]; oral, 200 mg UDCA solution of this invention, 0.25 h): 5120.2 ng/mL and 10917.1 ng/mL and 9159 ng/mL; Plasma concentration, individual men #1-#3 ([1]; oral, 200 mg UDCA solution of this invention, 0.5 h): 7743.2 ng/mL and 7439.5 ng/mL; Plasma concentration, individual men #1-#3 ([1]; oral, 200 mg UDCA solution of this invention, 1 h): 1692.1 ng/mL and 1546 ng/mL and 216.3 ng/mL; Plasma concentration, individual men #1-#3 ([1]; oral, 200 mg UDCA solution of this invention, 1.5 h): 525.6 ng/mL and 275.9 ng/mL and 168 ng/mL; Plasma concentration, individual men #1-#3 ([1]; oral, 200 mg UDCA solution of this invention, 2 h): 217.6 ng/mL and 122.7 ng/mL; Plasma concentration, individual men #1-#3 ([1]; oral, 200 mg UDCA solution of this invention, 3 h): 207.4 ng/mL; Cmax compared with enteric coated sodium salt of UDCA preparations ([1]; oral, 200 mg, men): at least two times higher; Cmax compared with regular UDCA tablet preparations ([1]; oral, 200 mg, men): four times higher; Tmax compared with the fastest Tmax previously known ([1]; oral, 200 mg, men): at least three times faster; UDCA level, Average ([2]; Table 5A: human, oral liquid solution containing 600 mg UDCA per day, 0 min): 0.618; UDCA level, Average ([2]; Table 5A: human, oral liquid solution containing 600 mg UDCA per day, 5 min): 4.578; UDCA level, Average ([2]; Table 5A: human, oral liquid solution containing 600 mg UDCA per day, 15 min): 20.394; UDCA level, Average ([2]; Table 5A: human, oral liquid solution containing 600 mg UDCA per day, 60 min): 10.202; UDCA level, Average ([2]; Table 5A: human, oral liquid solution containing 600 mg UDCA per day, 120 min): 2.168; UDCA level, Average ([2]; Table 5A: human, oral liquid solution containing 600 mg UDCA per day, 240 min): 0.772; UDCA level, Average ([2]; Table 5B: human, oral syrup containing 600 mg UDCA per day, 0 min): 0.398; UDCA level, Average ([2]; Table 5B: human, oral syrup containing 600 mg UDCA per day, 5 min): 1.976; UDCA level, Average ([2]; Table 5B: human, oral syrup containing 600 mg UDCA per day, 15 min): 7.144; UDCA level, Average ([2]; Table 5B: human, oral syrup containing 600 mg UDCA per day, 60 min): 15.000; UDCA level, Average ([2]; Table 5B: human, oral syrup containing 600 mg UDCA per day, 120 min): 4.820; UDCA level, Average ([2]; Table 5B: human, oral syrup containing 600 mg UDCA per day, 240 min): 1.258; Cmax (M ± S.E.) ([3]; 200 mg): 1900 ± 250 ng/mL; Tmax (M ± S.E.) ([3]; 200 mg): 90 ± 24 min; Cmax (M ± S.E.) ([3]; 400 mg): 7090 ± 1430 ng/mL; Tmax (M ± S.E.) ([3]; 400 mg): 48 ± 12 min; solubility in the gastric juices and in aqueous hydrochloric acid solution [4]: especially insoluble; solubility in the gastric pH range [4]: no longer soluble; solubility in water [4]: practically insoluble
